In patent US20260007758A1, “SO[…]-2 RECEPTOR (SST2R) NON-PEPTIDE DRUG CONJUGATES AND USES THEREOF” (Crinetics Pharmaceuticals, Inc., priority 2024, published 2026) one finds EC50 data, which are given here for 15 molecules.

Structures are written as SMILES.

Holding throughout (type): cell-based
Experiment [1] deals with NCI-H524 human small cell lung cancer cells. Kind of experiment: H524 assay: inhibition of cell proliferation (CellTiter Glo). The conditions noted are these: 2 h treatment, washout, additional 70 h incubation. In short, it runs like this:
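NCI-H524 cells were exposed for 2 h to NDC in an 11-point two-fold series starting at 1 uM. The drug was then washed out and cells grew a further 70 h. CellTiter Glo luminescence gave % inhibition versus untreated control, and IC50 came from a four-parameter nonlinear regression.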
Background: ATP-based viability assays read luminescence as a measure of living cells.

For experiment [2], the target named is T1, human somatostatin receptor subtype 2 (Homo sapiens, UniProt P30874).
T1 construct: expressed in transfected cells
Kind of experiment: Functional assay for SSTR2 agonists (HTRF cAMP). The conditions noted are these: CHO-K1 cells stably expressing human SST2; NKH477-stimulated cAMP; 20 min at 37 C; read-out: hSST2 cAMP Avg EC50. A digest of the protocol:
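CHO-K1 cells stably expressing human SSTR2 treated with compound (typically 0-10,000 nM final) for 20 min at 37 °C. Lysate cAMP measured by HTRF (665/620 nm ratio), converted via standard curve; EC50 from cAMP vs concentration.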

Experiment [3] concerns the target T2, SST2 (Homo sapiens, UniProt P30874).
T2 construct: host or cells: PathHunter CHO-K1 SST2 cells
The experiment is described as follows: PathHunter CHO-K1 SST2 Internalization Assay. The note with it: PathHunter CHO-K1 SST2 cells; 90 min at 37 C; luminescence; read-out: Internalization EC50. In short, it runs like this: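 CHO-K1 cells expressing human SST2, 2500 cells/well, grown 48 h, then exposed 90 min at 37 C to 11-point 1:3 NDC dilutions (final top 10 uM). Beta-Glo luminescence after 60 min at room temperature; four-parameter IC50, duplicate mean, background-corrected.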

T1 sequence (P30874 whole entry): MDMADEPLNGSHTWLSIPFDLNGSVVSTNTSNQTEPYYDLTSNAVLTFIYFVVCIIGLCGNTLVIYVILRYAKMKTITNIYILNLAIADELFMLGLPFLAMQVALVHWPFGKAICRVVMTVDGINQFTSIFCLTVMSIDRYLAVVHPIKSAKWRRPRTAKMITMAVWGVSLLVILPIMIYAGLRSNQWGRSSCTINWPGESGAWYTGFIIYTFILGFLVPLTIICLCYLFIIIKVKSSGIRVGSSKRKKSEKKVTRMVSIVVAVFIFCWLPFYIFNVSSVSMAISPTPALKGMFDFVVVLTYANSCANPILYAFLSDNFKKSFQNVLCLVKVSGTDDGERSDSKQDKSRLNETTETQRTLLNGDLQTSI
T2 sequence (P30874 whole entry): as above

On to `CC[C@H](C)[C@@H]([C@@H](CC(=O)N1CCC[C@H]1[C@H](OC)[C@@H](C)C(=O)N[C@H](C)[C@@H](O)c1ccccc1)OC)N(C)C(=O)[C@@H](NC(=O)[C@H](C(C)C)N(C)C(=O)OCc1ccc(NC(=O)[C@H](CCCNC(N)=O)NC(=O)[C@@H](NC(=O)C[C@@H](N)C(=O)NCCOCCC(=O)NCCNc2ncc(-c3cc(C)cc(F)c3)c(N3CCC(N)CC3)c2-c2nc3ccc(Cl)cc3[nH]2)C(C)C)c(O[C@@H]2O[C@H](C(=O)O)[C@@H](O)[C@H](O)[C@H]2O)c1)C(C)C` [Compound 92], for which the EC50 (commonly the concentration needed to bring the measured effect to its halfway point) in experiment [1] was 680 nM; in experiment [2] it was 0.2 nM; in experiment [3], 2.5 nM.
The like results for `CC[C@H](C)[C@@H]([C@@H](CC(=O)N1CCC[C@H]1[C@H](OC)[C@@H](C)C(=O)N[C@H](C)[C@@H](O)c1ccccc1)OC)N(C)C(=O)[C@@H](NC(=O)[C@H](C(C)C)N(C)C(=O)OCc1ccc(NC(=O)[C@H](CCCNC(N)=O)NC(=O)[C@@H](NC(=O)[C@H](CCC(=O)O)NC(=O)CCOCCC(=O)NCCNc2ncc(-c3cc(C)cc(F)c3)c(N3CCC(N)CC3)c2-c2nc3ccc(Cl)cc3[nH]2)C(C)C)cc1C(=O)N1CC(N)C1)C(C)C` [Compound 91] were, in that order, 1000 nM, 0.46 nM and 2.5 nM.
As to `CC[C@H](C)[C@@H]([C@@H](CC(=O)N1CCC[C@H]1[C@H](OC)[C@@H](C)C(=O)N[C@H](C)[C@@H](O)c1ccccc1)OC)N(C)C(=O)[C@@H](NC(=O)[C@H](C(C)C)N(C)C(=O)OCc1ccc(NC(=O)[C@H](CCCNC(N)=O)NC(=O)[C@@H](NC(=O)[C@H](CCC(=O)O)NC(=O)CCOCCC(=O)NCCNc2ncc(-c3cc(C)cc(F)c3)c(N3CCC(N)CC3)c2-c2nc3ccc(Cl)cc3[nH]2)C(C)C)cc1C(=O)NCCN(C)C)C(C)C` [Compound 64], the EC50 in experiment [1] was found to be 11 nM; in experiment [2] it was 0.12 nM; in experiment [3], 2.9 nM.
For `CC[C@H](C)[C@@H]([C@@H](CC(=O)N1CCC[C@H]1[C@H](OC)[C@@H](C)C(=O)N[C@H](C)[C@@H](O)c1ccccc1)OC)N(C)C(=O)[C@@H](NC(=O)[C@H](C(C)C)N(C)C(=O)OCc1ccc(NC(=O)[C@H](CCCNC(N)=O)NC(=O)[C@@H](NC(=O)CCOCCC(=O)NCCNc2ncc(-c3cc(C)cc(F)c3)c(N3CCC(N)CC3)c2-c2nc3ccc(Cl)cc3[nH]2)C(C)C)c(O[C@@H]2O[C@H](C(=O)N3CCNCC3)[C@@H](O)[C@H](O)[C@H]2O)c1)C(C)C` [Compound 222], the values for the EC50 in experiment [1], in experiment [2] and in experiment [3] were 1.9 nM, 0.11 nM and 4.3 nM, respectively.
`CC[C@H](C)[C@@H]([C@@H](CC(=O)N1CCC[C@H]1[C@H](OC)[C@@H](C)C(=O)N[C@H](C)[C@@H](O)c1ccccc1)OC)N(C)C(=O)[C@@H](NC(=O)[C@H](C(C)C)N(C)C(=O)OCc1ccc(NC(=O)[C@H](CCCNC(N)=O)NC(=O)[C@@H](NC(=O)CCOCCC(=O)N(C)CC(=O)NCCNc2ncc(-c3cc(C)cc(F)c3)c(N3CCC(N)CC3)c2-c2nc3ccc(Cl)cc3[nH]2)C(C)C)c(O[C@@H]2O[C@H](C(=O)O)[C@@H](O)[C@H](O)[C@H]2O)c1)C(C)C` [Compound 133]: the figures for the EC50 in experiment [1], in experiment [2] and in experiment [3] were 1900 nM, 0.097 nM and 5.3 nM, respectively.
Regarding `CC[C@H](C)[C@@H]([C@@H](CC(=O)N1CCC[C@H]1[C@H](OC)[C@@H](C)C(=O)N[C@H](C)[C@@H](O)c1ccccc1)OC)N(C)C(=O)[C@@H](NC(=O)[C@H](C(C)C)N(C)C(=O)OCc1ccc(NC(=O)[C@H](CCCNC(N)=O)NC(=O)[C@@H](NC(=O)[C@H](CCC(=O)O)NC(=O)CCOCCC(=O)NCCNc2ncc(-c3cc(C)cc(F)c3)c(N3CCC(N)CC3)c2-c2nc3ccc(Cl)cc3[nH]2)C(C)C)c(C)c1)C(C)C` [Compound 15], the EC50 was 91 nM in experiment [1], 0.27 nM in experiment [2] and 17 nM in experiment [3].
On to `CC[C@H](C)[C@@H]([C@@H](CC(=O)N1CCC[C@H]1[C@H](OC)[C@@H](C)C(=O)N[C@H](C)[C@@H](O)c1ccccc1)OC)N(C)C(=O)[C@@H](NC(=O)[C@H](C(C)C)N(C)C(=O)OCc1ccc(NC(=O)[C@H](C)NC(=O)[C@@H](NC(=O)CCOCCC(=O)NCCNc2ncc(-c3cc(F)cc(OC)c3)c(N3CCC(N)CC3)c2-c2nc3ccc(Cl)cc3[nH]2)C(C)C)c(O[C@@H]2O[C@H](C(=O)O)[C@@H](O)[C@H](O)[C@H]2O)c1)C(C)C` [Compound 139], for which the EC50 in experiment [1] was found to be 30 nM; in experiment [2] it was 0.1 nM; in experiment [3] it was 4.9 nM.
Take `CC[C@H](C)[C@@H]([C@@H](CC(=O)N1CCC[C@H]1[C@H](OC)[C@@H](C)C(=O)N[C@H](C)[C@@H](O)c1ccccc1)OC)N(C)C(=O)[C@@H](NC(=O)[C@H](C(C)C)N(C)C(=O)OCc1ccc(NC(=O)[C@H](CCCNC(N)=O)NC(=O)[C@@H](NC(=O)CCOCCC(=O)NCCNc2ncc(-c3cc(C)cc(F)c3)c(N3CCC(N)CC3)c2-c2cc3ccc(Cl)cc3[nH]2)C(C)C)c(O[C@@H]2C[C@H](C(=O)NCCN)[C@@H](O)[C@H](O)[C@H]2O)c1)C(C)C` [Compound 43]: the EC50 in experiment [1] was 1.8 nM; in experiment [2] it was 0.24 nM; in experiment [3], 6.6 nM.
`CC[C@H](C)[C@@H]([C@@H](CC(=O)N1CCC[C@H]1[C@H](OC)[C@@H](C)C(=O)N[C@H](C)[C@@H](O)c1ccccc1)OC)N(C)C(=O)[C@@H](NC(=O)[C@H](C(C)C)N(C)C(=O)OCc1ccc(NC(=O)[C@H](CCCNC(N)=O)NC(=O)[C@@H](NC(=O)c2cc(NCCOCCC(=O)NCCNc3ncc(-c4cc(C)cc(F)c4)c(N4CCC(N)CC4)c3-c3nc4ccc(F)cc4[nH]3)cc(C(=O)NCC(=O)O)c2)C(C)C)cc1)C(C)C` [Compound 165]: the results for the EC50 in experiment [1], in experiment [2] and in experiment [3] were 90 nM, 0.5 nM and 10 nM, respectively.
The like results for `CC[C@H](C)[C@@H]([C@@H](CC(=O)N1CCC[C@H]1[C@H](OC)[C@@H](C)C(=O)N[C@H](C)[C@@H](O)c1ccccc1)OC)N(C)C(=O)[C@@H](NC(=O)[C@H](C(C)C)N(C)C(=O)OCc1ccc(NC(=O)[C@H](CCCNC(N)=O)NC(=O)[C@@H](NC(=O)CCOCCOCCOCCOCCNc2ncc(C(=O)NCCNc3ncc(-c4cc(C)cc(F)c4)c(N4CCC(N)CC4)c3-c3nc4ccc(Cl)cc4[nH]3)cn2)C(C)C)cc1)C(C)C` [Compound 180] were, in that order, 680 nM, 0.52 nM and 16 nM.
Take `CC[C@H](C)[C@@H]([C@@H](CC(=O)N1CCC[C@H]1[C@H](OC)[C@@H](C)C(=O)N[C@H](C)[C@@H](O)c1ccccc1)OC)N(C)C(=O)[C@H](C)NC(=O)[C@H](C(C)C)N(C)C(=O)OCc1ccc(NC(=O)[C@H](C)NC(=O)[C@@H](NC(=O)CCOCCNC(=O)CCNc2ncc(-c3cc(C)cc(F)c3)c(N3CCC(N)CC3)c2-c2nc3ccc(Cl)cc3[nH]2)C(C)C)c(O[C@@H]2O[C@H](C(=O)O)[C@@H](O)[C@H](O)[C@H]2O)c1` [Compound 194]: the EC50 in experiment [1] came out at 21 nM; in experiment [2], 0.16 nM; in experiment [3], 7.6 nM.
The like results for `CC[C@H](C)[C@@H]([C@@H](CC(=O)N1CCC[C@H]1[C@H](OC)[C@@H](C)C(=O)N[C@H](C)[C@@H](O)c1ccccc1)OC)N(C)C(=O)[C@@H](NC(=O)[C@H](C(C)C)N(C)C(=O)OCc1ccc(NC(=O)[C@H](C)NC(=O)[C@@H](NC(=O)[C@@H](CS(=O)(=O)O)NC(=O)CCOCCC(=O)NCCNc2ncc(-c3cc(C)cc(F)c3)c(N3CCC(N)CC3)c2-c2nc3ccc(Cl)cc3[nH]2)C(C)C)c(O[C@@H]2O[C@H](C(=O)NCCN)[C@@H](O)[C@H](O)[C@H]2O)c1)C(C)C` [Compound 41] were, in that order, 40 nM, 0.081 nM and 9 nM.
Take `CC[C@H](C)[C@@H]([C@@H](CC(=O)N1CCC[C@H]1[C@H](OC)[C@@H](C)C(=O)N[C@H](C)[C@@H](O)c1ccccc1)OC)N(C)C(=O)[C@@H](NC(=O)[C@H](C(C)C)N(C)C(=O)OCc1ccc(NC(=O)[C@H](CCCNC(N)=O)NC(=O)[C@@H](NC(=O)[C@H](CCC(=O)O)NC(=O)CCOCCOCCOCCOCCC(=O)NCCNc2ncc(-c3cc(C)cc(F)c3)c(N3CCC(N)CC3)c2-c2nc3ccc(Cl)cc3[nH]2)C(C)C)cc1C(=O)O)C(C)C` [Compound 3]: the EC50 in experiment [1] came out at 680 nM; in experiment [2] it was 0.19 nM; in experiment [3], 6.8 nM.
In the case of `CC[C@H](C)[C@@H]([C@@H](CC(=O)N1CCC[C@H]1[C@H](OC)[C@@H](C)C(=O)N[C@H](C)[C@@H](O)c1ccccc1)OC)N(C)C(=O)[C@@H](NC(=O)[C@H](C(C)C)N(C)C(=O)OCc1ccc(NC(=O)[C@H](CCCNC(N)=O)NC(=O)[C@@H](NC(=O)c2cc(OCCOCCOCCOCCOCCC(=O)NCCNc3ncc(-c4cc(C)cc(F)c4)c(N4CCC(N)CC4)c3-c3nc4ccc(Cl)cc4[nH]3)cc(C(=O)NCC(=O)O)c2)C(C)C)cc1)C(C)C` [Compound 161], the EC50 was found to be 63 nM in experiment [1], 0.32 nM in experiment [2] and 9.1 nM in experiment [3].
Turning to `CC[C@H](C)[C@@H]([C@@H](CC(=O)N1CCC[C@H]1[C@H](OC)[C@@H](C)C(=O)N[C@H](C)[C@@H](O)c1ccccc1)OC)N(C)C(=O)[C@@H](NC(=O)[C@H](C(C)C)N(C)C(=O)OCc1ccc(NC(=O)[C@H](C)NC(=O)[C@@H](NC(=O)CCOCCC(=O)NCCNc2ncc(-c3cc(C)cc(F)c3)c(N3CCC(N)CC3)c2-c2cc3ccc(F)cc3[nH]2)C(C)C)c(O[C@@H]2O[C@H](C(=O)O)[C@@H](O)[C@H](O)[C@H]2O)c1)C(C)C` [Compound 116], the EC50 in experiment [1] worked out at 21 nM; in experiment [2], 0.19 nM; in experiment [3], 14 nM.
